Columns and labels:
Format in all cases: cell-based
[1] = test system: Candida albicans ATCC 10231; details: compared to 1 and 2
[2] = test system: Candida glabrata ATCC 2001; test: MIC, serial dilution antifungal assay
[3] = test system: Human erythrocytes; test: Hemolytic assay; details: tested concentrations

| Substance | fold more potent (MIC) than wild-type fermentation products 1 and 2 against C. albicans [1] | fold improvement of MIC against C. glabrata compared to 1 [2] | hemolytic activity relative to pneumocandin B0 (overall) [3] |
| --- | --- | --- | --- |
| pneumocandin I [Compound 5] | 8 fold | 32 fold | comparable to pneumocandin B0 |
| pneumocandin K [Compound 7] | 4 fold | 32 fold | higher hemolytic activity than pneumocandin B0 |

From publication PMC5502478 (ACS chemical biology, 2016)
